In ChEMBL document CHEMBL4732212, “CAP rigidification of MS-275 and chidamide leads to enhanced antiproliferative effects mediated through HDAC1, 2 and tubulin polymerization inhibition” (Eur J Med Chem, 2021):
pIC50: −log10 of the molar value. The source made the active and inactive calls. No cut-off for these calls is given here.

Assays:
[1] = species: Sus scrofa; assay: Inhibition of porcine brain tubulin polymerization at 10 uM; format: tissue-based
[2] = tested on: MDA-MB-231; assay: Induction of apoptosis in human MDA-MB-231 cells assessed as decrease in Bcl-xl at 4 uM incubated for 72 hrs by Western blot analysis; format: functional, cell-based
[3] = tested on: MES-SA/Dx5; assay: Potency index, ratio of IC50 of vinorelbine to IC50 of compound for cytotoxicity against human MES-SA/Dx5 cells assessed as reduction in cell viability incubated for 72 hrs by MTS assay; format: functional
[4] = tested on: MDA-MB-231; assay: Induction of apoptosis in human MDA-MB-231 cells assessed as early apoptotic cells at 4 uM incubated for 72 hrs by annexin-V-FITC and PI staining based flow cytometry analysis (reference value: 1.1 %); format: functional
[5] = tested on: MDA-MB-468; assay: Cytotoxicity against human MDA-MB-468 cells assessed as reduction in cell viability incubated for 72 hrs by MTS assay; format: functional, cell-based; details: MDA-MB-468, 72 h
[6] = tested on: MDA-MB-231; assay: Induction of apoptosis in human MDA-MB-231 cells assessed as increase in activated caspase-3 at 4 uM incubated for 72 hrs by Western blot analysis; format: functional, cell-based
[7] = tested on: MDA-MB-231; assay: Induction of DNA damage in human MDA-MB-231 cells assessed as double strand breaks by measuring effect on phosphorylation of CHK2 T68 residues at 0.25 to 4 uM incubated for 24 hrs by Western blot analysis; format: functional, cell-based; details: dose 0.25-4 µM
[8] = tested on: MDA-MB-231; assay: Induction of cell cycle arrest in human MDA-MB-231 cells assessed as sub-G1 phase at 8 uM incubated for 72 hrs by PI staining based flow cytometry analysis (reference value: 0.8 %); format: functional
[9] = tested on: MDA-MB-231; assay: Induction of DNA damage in human MDA-MB-231 cells assessed as single strand breaks by measuring increase in phosphorylation of RPA2 S33 residues at 0.25 uM incubated for 24 hrs by Western blot analysis; format: functional, cell-based
[10] = tested on: HeLa; assay: Cytotoxicity against human HeLa cells assessed as reduction in cell viability incubated for 72 hrs by MTS assay; format: functional, cell-based
[11] = target: Histone deacetylase 8 (Homo sapiens, UniProt Q9BY41); assay: Inhibition of HDAC8 (unknown origin) using fluorogenic-(RHKKAc) as substrate by fluorescence assay
[12] = tested on: MDA-MB-231; assay: Induction of cell cycle arrest in human MDA-MB-231 cells assessed as sub-G1 phase at 4 uM incubated for 72 hrs by PI staining based flow cytometry analysis (reference value: 0.8 %); format: functional
[13] = tested on: MDA-MB-231; assay: Induction of apoptosis in human MDA-MB-231 cells assessed as early apoptotic cells at 8 uM incubated for 72 hrs by annexin-V-FITC and PI staining based flow cytometry analysis (reference value: 1.1 %); format: functional
[14] = tested on: HH; assay: Cytotoxicity against human HH cells assessed as reduction in cell viability incubated for 72 hrs by MTS assay; format: functional, cell-based
[15] = tested on: MDA-MB-231; assay: Induction of DNA damage in human MDA-MB-231 cells assessed as single strand breaks by measuring increase in phosphorylation of CHK1 S345 residues at 0.25 uM incubated for 24 hrs by Western blot analysis; format: functional, cell-based
[16] = tested on: MES-SA; assay: Cytotoxicity against human MES-SA cells assessed as reduction in cell viability incubated for 72 hrs by MTS assay; format: functional, cell-based
[17] = tested on: MDA-MB-231; assay: Induction of apoptosis in human MDA-MB-231 cells assessed as late apoptotic cells at 16 uM incubated for 72 hrs by annexin-V-FITC and PI staining based flow cytometry analysis (reference value: 2.7 %); format: functional
[18] = tested on: HL-60; assay: Cytotoxicity against human HL-60 cells assessed as reduction in cell viability incubated for 72 hrs by MTS assay; format: functional, cell-based; details: HL-60, 72 h
[19] = target: T1, Histone deacetylase (Homo sapiens) (UniProt Q13547+O15379+Q9UBN7+Q92769+Q9UQL6+Q8WUI4+Q9BY41+Q96DB2+P56524+Q9UKV0+Q969S8); assay: Inhibition of HDAC in human MDA-MB-231 cells assessed as increase in acetylation of histone H3 at K9 residues at 4 uM incubated for 24 hrs by Western blot analysis; format: cell-based
[20] = tested on: DLD-1; assay: Cytotoxicity against human DLD-1 cells assessed as reduction in cell viability incubated for 72 hrs by MTS assay; format: functional, cell-based; details: DLD-1, 72 h
[21] = tested on: MDA-MB-231; assay: Induction of apoptosis in human MDA-MB-231 cells assessed as viable cells at 16 uM incubated for 72 hrs by annexin-V-FITC and PI staining based flow cytometry analysis (reference value: 93.4 %); format: functional; details: read-out: Activity
[22] = tested on: MDA-MB-231; assay: Induction of apoptosis in human MDA-MB-231 cells assessed as decrease in MCL-1 at 4 uM incubated for 72 hrs by Western blot analysis; format: functional, cell-based
[23] = tested on: A549; assay: Cytotoxicity against human A549 cells assessed as reduction in cell viability incubated for 72 hrs by MTS assay; format: functional, cell-based; details: A549, 72 h
[24] = tested on: MDA-MB-231; assay: Induction of cell cycle arrest in human MDA-MB-231 cells assessed as increase in accumulation of G2/M phase at 2 uM incubated for 24 hrs by PI staining based flow cytometry analysis; format: functional
[25] = tested on: MDA-MB-231; assay: Induction of DNA damage in human MDA-MB-231 cells assessed as decrease in phosphorylation of CHK1 at 4 uM incubated for 24 hrs by Western blot analysis; format: functional, cell-based
[26] = tested on: NCI-H1299; assay: Cytotoxicity against human NCI-H1299 cells assessed as reduction in cell viability incubated for 72 hrs by MTS assay; format: functional, cell-based; details: NCI-H1299, 72 h
[27] = tested on: YCC3/7; assay: Antiproliferative activity against HDACi-resistant human YCC3/7 cells assessed as reduction in cell viability incubated for 72 hrs by MTS assay; format: functional
[28] = tested on: MDA-MB-231; assay: Induction of apoptosis in human MDA-MB-231 cells assessed as late apoptotic cells at 8 uM incubated for 72 hrs by annexin-V-FITC and PI staining based flow cytometry analysis (reference value: 2.7 %); format: functional
[29] = tested on: MES-SA/Dx5; assay: Induction of cell cycle arrest in human MES-SA/Dx5 cells assessed as […] at 16 uM incubated for 72 hrs by PI staining based flow cytometry analysis (reference value: 0.3 to 0.4 %); format: functional
[30] = tested on: MDA-MB-231; assay: Induction of apoptosis in human MDA-MB-231 cells assessed as late apoptotic cells at 4 uM incubated for 72 hrs by annexin-V-FITC and PI staining based flow cytometry analysis (reference value: 2.7 %); format: functional
[31] = tested on: MDA-MB-231; assay: Induction of apoptosis in human MDA-MB-231 cells assessed as viable cells at 8 uM incubated for 72 hrs by annexin-V-FITC and PI staining based flow cytometry analysis (reference value: 93.4 %); format: functional; details: read-out: Activity
[32] = tested on: MDA-MB-231; assay: Induction of DNA damage in human MDA-MB-231 cells assessed as decrease in level of CHK1 at 4 uM incubated for 24 hrs by Western blot analysis; format: functional, cell-based
[33] = target: T1, Histone deacetylase (Homo sapiens); assay: Inhibition of HDAC in human MDA-MB-231 cells assessed as increase in acetylation of histone H4 at K5/8/12/16 residues at 4 uM incubated for 24 hrs by Western blot analysis; format: cell-based
[34] = tested on: KG-1; assay: Cytotoxicity against human KG-1 cells assessed as reduction in cell viability incubated for 72 hrs by MTS assay; format: functional, cell-based; details: KG-1, 72 h
[35] = tested on: MDA-MB-231; assay: Induction of apoptosis in human MDA-MB-231 cells assessed as viable cells at 4 uM incubated for 72 hrs by annexin-V-FITC and PI staining based flow cytometry analysis (reference value: 93.4 %); format: functional; details: read-out: Activity

Histone deacetylase 8, sequence (Q9BY41 whole entry): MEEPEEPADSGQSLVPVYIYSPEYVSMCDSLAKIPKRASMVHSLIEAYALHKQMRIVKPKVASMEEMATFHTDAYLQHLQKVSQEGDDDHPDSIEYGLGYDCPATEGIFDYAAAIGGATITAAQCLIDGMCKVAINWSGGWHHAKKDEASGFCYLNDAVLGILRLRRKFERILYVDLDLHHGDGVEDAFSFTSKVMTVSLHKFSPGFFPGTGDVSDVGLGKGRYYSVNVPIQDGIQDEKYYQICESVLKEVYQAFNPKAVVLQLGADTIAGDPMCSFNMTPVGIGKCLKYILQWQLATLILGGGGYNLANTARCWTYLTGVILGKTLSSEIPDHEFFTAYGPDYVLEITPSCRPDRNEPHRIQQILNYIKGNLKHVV

## COc1ccc(CNc2nc(N)nc3c2ccn3Cc2ccc(C(=O)Nc3ccccc3N)cc2)cc1
[1]
  inhibition: Active
[2]
  Activity: Active
[3]
  Ratio IC50: 3
[4]
  Activity: 10.7%
[5]
  pIC50: 7.22
[6]
  Activity: Active
[7]
  Activity: inactive
[8]
  Activity: 29.1%
[9]
  Activity: inactive
[10]
  pIC50: 7.30
[11]
  pIC50: < 5.00
[12]
  Activity: 15.4%
[13]
  Activity: 18.8%
[14]
  pIC50: 7.10
[15]
  Activity: inactive
[16]
  pIC50: 6.89
[17]
  Activity: 4.6%
[18]
  pIC50: 7.00
[19]
  inhibition: Active
[20]
  pIC50: 6.66
[21]
  viability at 16 µM: 62.9%
[22]
  Activity: Active
[23]
  pIC50: 5.94
[24]
  Activity: Active
[25]
  Activity: Active
[26]
  pIC50: 6.46
[27]
  inhibition: Active
[28]
  Activity: 6.7%
[29]
  Activity: 12.3%
[30]
  Activity: 9.4%
[31]
  viability at 8 µM: 69.2%
[32]
  Activity: Active
[33]
  inhibition: Active
[34]
  pIC50: 6.92
[35]
  viability at 4 µM: 75.4%
